Patent US7009045B2 (priority 2000, dated 2006)

Legend:
Assay type in all cases: cell-based
[1] = tested on: Pichia guilliermondii wild type and regulatory mutants (rib81); assay: Sensitivity after electroporation to K2Cr2O7, medium with 0.5% glycerol (Table 21); parameters: key: +++: strong growth; ++: weak growth; +: very weak growth; —: absence of growth; conditions: #9-20 (leu2); K2Cr2O7 125 μM
Excerpt: The possibility for positive selection of P. guilliermondii rib81 transformants unable to overproduce riboflavin in minimal medium was studied. For this, the toxicity of K2Cr2O7 (Cr^+6) was compared for the P. guilliermondii wild-type strain ATCC 9058 and regulatory mutants P. guilliermondii rib81 9-20 and 20-2. The cells were pregrown in liquid YPD to OD 1.5–2.0 (540 nm) and electroporated according to the protocol described (Example 34). Electroporated cells were washed three times with 10×volume of 0.6 M KCl and then the volume was adjusted to 1 ml. Then the cells were plated at 0.2 ml suspension per plate which contained 0.5% glycerol, 0.6 M KCl and K2Cr2O7 (50–1000 μM).
The visual selection of the non-overproducing riboflavin transformants is rather arbitrary and uncertain. Therefore it was decided to develop the method for positive selection of the transformants using tentative differences in sensitivity to K2Cr2O7 of wild-type P. guilliermondii and the regulatory mutants rib81 9-20 and 20-2. After 6 days of cultivation in the medium with 0.5% glycerol, it was shown that K2Cr2O7 at 150–180 μM inhibited growth of regulatory mutant 9-20 more strongly than that of the wild strain (Table 21).

[2] = tested on: Pichia guilliermondii wild type and regulatory mutants (rib81); assay: Sensitivity after electroporation to K2Cr2O7, Burkholder medium with 0.3 M sucrose (Table 22); parameters: key: +++: strong growth; ++: weak growth; —: absence of growth
[3] = tested on: Candida famata regulatory mutants able to overproduce riboflavin; assay: Sensitivity to K2Cr2O7, solid Burkholder medium with 0.5% glycerol (Table 14); parameters: key: +++: strong growth; ++: weak growth; —: absence of growth
Description: The sensitivity of the regulatory mutants of the yeast C. famata which overproduce riboflavin in iron rich medium probably due to defects in genes regulating repression (repression mutants), to different ions of heavy metals was studied. For this, the analyzed strains were streaked on the YPD plates and then were replica-plated on Burkholder synthetic medium containing leucine (40 μg/ml). The C.famata mutants L20105-40-1-11, L20105-40-1-17, L20105-3-2-1, L20105-3-2-8 and L20105-3-2-12 (all contained leu2 marker) accumulated 80–100 μg riboflavin/ml. The mutants #75, 4-48, 2-5 produced much higher amounts of riboflavin (200–250 μg/ml) but were prototrophs for leucine synthesis. Strain #75 was characterized by retarded growth comparing with other mutants. The strains VKM Y-9 (wild type) and L20105 (leu2) were used as the control strains.

## [K+].[K+].[O]=[Cr](=[O])([O-])[O][Cr](=[O])(=[O])[O-] [K2Cr2O7]
[1]
  growth: +
[2]; #9-20 (leu2), K2Cr2O7 100 μM
  growth: +++
[2]; #9-20 (leu2), K2Cr2O7 150 μM
  growth: +++
[2]; #9-20 (leu2), K2Cr2O7 200 μM
  growth: +++
[2]; #9-20 (leu2), K2Cr2O7 250 μM
  growth: +++
[2]; #9-20 (leu2), K2Cr2O7 300 μM
  growth: +++
[2]; #9-20 (leu2), K2Cr2O7 350 μM
  growth: +++
[2]; #9-20 (leu2), K2Cr2O7 450 μM
  growth: —
[2]; #9-20 (leu2), K2Cr2O7 500 μM
  growth: —
[2]; #9-20 (leu2), K2Cr2O7 550 μM
  growth: —
[2]; #9-20 (leu2), K2Cr2O7 600 μM
  growth: —
[2]; ATCC9058, K2Cr2O7 100 μM
  growth: +++
[2]; ATCC9058, K2Cr2O7 150 μM
  growth: +++
[2]; ATCC9058, K2Cr2O7 200 μM
  growth: +++
[2]; ATCC9058, K2Cr2O7 250 μM
  growth: +++
[2]; ATCC9058, K2Cr2O7 300 μM
  growth: +++
[2]; ATCC9058, K2Cr2O7 350 μM
  growth: +++
[2]; ATCC9058, K2Cr2O7 450 μM
  growth: —
[2]; ATCC9058, K2Cr2O7 500 μM
  growth: —
[2]; ATCC9058, K2Cr2O7 550 μM
  growth: —
[2]; ATCC9058, K2Cr2O7 600 μM
  growth: —
[3]; #2-5, K2Cr2O7 25 μM
  growth: +++
[3]; #2-5, K2Cr2O7 30 μM
  growth: +++
[3]; #2-5, K2Cr2O7 35 μM
  growth: +++
[3]; #2-5, K2Cr2O7 40 μM
  growth: +++
[3]; #2-5, K2Cr2O7 45 μM
  growth: +++
[3]; #2-5, K2Cr2O7 55 μM
  growth: ++
[3]; #2-5, K2Cr2O7 85 μM
  growth: —
[3]; #2-5, K2Cr2O7 100 μM
  growth: —
[3]; #2-5, K2Cr2O7 125 μM
  growth: —
[3]; #2-5, K2Cr2O7 150 μM
  growth: —
[3]; #4-48, K2Cr2O7 25 μM
  growth: +++
[3]; #4-48, K2Cr2O7 30 μM
  growth: +++
[3]; #4-48, K2Cr2O7 35 μM
  growth: +++
[3]; #4-48, K2Cr2O7 40 μM
  growth: +++
[3]; #4-48, K2Cr2O7 45 μM
  growth: +++
[3]; #4-48, K2Cr2O7 55 μM
  growth: ++
[3]; #4-48, K2Cr2O7 65 μM
  growth: —
[3]; #4-48, K2Cr2O7 70 μM
  growth: —
[3]; #4-48, K2Cr2O7 75 μM
  growth: —
[3]; #4-48, K2Cr2O7 85 μM
  growth: —
[3]; #4-48, K2Cr2O7 100 μM
  growth: —
[3]; #4-48, K2Cr2O7 125 μM
  growth: —
[3]; #4-48, K2Cr2O7 150 μM
  growth: —
[3]; #75, K2Cr2O7 25 μM
  growth: +++
[3]; #75, K2Cr2O7 30 μM
  growth: +++
[3]; #75, K2Cr2O7 35 μM
  growth: +++
[3]; #75, K2Cr2O7 45 μM
  growth: ++
[3]; #75, K2Cr2O7 55 μM
  growth: ++
[3]; #75, K2Cr2O7 65 μM
  growth: —
[3]; #75, K2Cr2O7 70 μM
  growth: —
[3]; #75, K2Cr2O7 75 μM
  growth: —
[3]; #75, K2Cr2O7 85 μM
  growth: —
[3]; #75, K2Cr2O7 100 μM
  growth: —
[3]; #75, K2Cr2O7 125 μM
  growth: —
[3]; #75, K2Cr2O7 150 μM
  growth: —
[3]; L20105 (leu2), K2Cr2O7 25 μM
  growth: +++
[3]; L20105 (leu2), K2Cr2O7 30 μM
  growth: +++
[3]; L20105 (leu2), K2Cr2O7 35 μM
  growth: +++
[3]; L20105 (leu2), K2Cr2O7 40 μM
  growth: +++
[3]; L20105 (leu2), K2Cr2O7 45 μM
  growth: +++
[3]; L20105 (leu2), K2Cr2O7 50 μM
  growth: +++
[3]; L20105 (leu2), K2Cr2O7 55 μM
  growth: +++
[3]; L20105 (leu2), K2Cr2O7 60 μM
  growth: +++
[3]; L20105 (leu2), K2Cr2O7 65 μM
  growth: ++
[3]; L20105 (leu2), K2Cr2O7 70 μM
  growth: ++
[3]; L20105 (leu2), K2Cr2O7 75 μM
  growth: ++
[3]; L20105 (leu2), K2Cr2O7 85 μM
  growth: ++
[3]; L20105 (leu2), K2Cr2O7 100 μM
  growth: ++
[3]; L20105 (leu2), K2Cr2O7 125 μM
  growth: —
[3]; L20105 (leu2), K2Cr2O7 150 μM
  growth: —
[3]; L20105-3-2-4, K2Cr2O7 25 μM
  growth: +++
[3]; L20105-3-2-4, K2Cr2O7 45 μM
  growth: —
[3]; L20105-3-2-4, K2Cr2O7 50 μM
  growth: —
[3]; L20105-3-2-4, K2Cr2O7 55 μM
  growth: —
[3]; L20105-3-2-4, K2Cr2O7 60 μM
  growth: —
[3]; L20105-3-2-4, K2Cr2O7 65 μM
  growth: —
[3]; L20105-3-2-4, K2Cr2O7 70 μM
  growth: —
[3]; L20105-3-2-4, K2Cr2O7 85 μM
  growth: —
[3]; L20105-3-2-4, K2Cr2O7 100 μM
  growth: —
[3]; L20105-3-2-4, K2Cr2O7 125 μM
  growth: —
[3]; L20105-3-2-4, K2Cr2O7 150 μM
  growth: —
[3]; L20105-3-2-8, K2Cr2O7 25 μM
  growth: +++
[3]; L20105-3-2-8, K2Cr2O7 45 μM
  growth: —
[3]; L20105-3-2-8, K2Cr2O7 50 μM
  growth: —
[3]; L20105-3-2-8, K2Cr2O7 55 μM
  growth: —
[3]; L20105-3-2-8, K2Cr2O7 60 μM
  growth: —
[3]; L20105-3-2-8, K2Cr2O7 65 μM
  growth: —
[3]; L20105-3-2-8, K2Cr2O7 70 μM
  growth: —
[3]; L20105-3-2-8, K2Cr2O7 75 μM
  growth: —
[3]; L20105-3-2-8, K2Cr2O7 85 μM
  growth: —
[3]; L20105-3-2-8, K2Cr2O7 100 μM
  growth: —
[3]; L20105-3-2-8, K2Cr2O7 125 μM
  growth: —
[3]; L20105-3-2-8, K2Cr2O7 150 μM
  growth: —
[3]; L20105-3-2-12, K2Cr2O7 25 μM
  growth: +++
[3]; L20105-3-2-12, K2Cr2O7 45 μM
  growth: —
[3]; L20105-3-2-12, K2Cr2O7 50 μM
  growth: —
[3]; L20105-3-2-12, K2Cr2O7 55 μM
  growth: —
[3]; L20105-3-2-12, K2Cr2O7 60 μM
  growth: —
[3]; L20105-3-2-12, K2Cr2O7 65 μM
  growth: —
[3]; L20105-3-2-12, K2Cr2O7 70 μM
  growth: —
[3]; L20105-3-2-12, K2Cr2O7 75 μM
  growth: —
[3]; L20105-3-2-12, K2Cr2O7 85 μM
  growth: —
[3]; L20105-3-2-12, K2Cr2O7 100 μM
  growth: —
[3]; L20105-3-2-12, K2Cr2O7 125 μM
  growth: —
[3]; L20105-3-2-12, K2Cr2O7 150 μM
  growth: —
[3]; VKM Y-9, K2Cr2O7 65 μM
  growth: +++
[3]; VKM Y-9, K2Cr2O7 70 μM
  growth: +++
[3]; VKM Y-9, K2Cr2O7 75 μM
  growth: +++
[3]; VKM Y-9, K2Cr2O7 85 μM
  growth: +++
[3]; VKM Y-9, K2Cr2O7 100 μM
  growth: +++
[3]; VKM Y-9, K2Cr2O7 125 μM
  growth: ++
